Reference: patent publication US10772893B2, “2-(morpholin-4-yl)-1,7-naphthyridines” (BAYER PHARMA AKTIENGESELLSCHAFT, priority 2014, dated 2020)

System: HeLa cells
Assay: Proliferation assay, crystal violet staining
Details: Homo sapiens, 96 h, read-out: Inhibition of HeLa cell proliferation, HeLa cells, 4 days incubation

SMILES | IC50
C[C@@H]1COCCN1c1cc(-c2cccn2C)c2ccnc(-c3ccn[nH]3)c2n1 [Example 91, 2-[(3R)-3-methylmorpholin-4-yl]-4-(1-methyl-1H-pyrrol-2-yl)-8-(1H-pyrazol-5-yl)-1,7-naphthyridine] | 108 nM
Cc1ccc(-c2cc(N3CCOC[C@H]3C)nc3c(-c4ccn[nH]4)nccc23)c(F)n1 [Example 93, 4-(2-fluoro-6-methylpyridin-3-yl)-2-[(3R)-3-methylmorpholin-4-yl]-8-(1H-pyrazol-5-yl)-1,7-naphthyridine] | 179 nM
C[C@@H]1COCCN1c1cc(-c2ccc(F)nc2)c2ccnc(-c3ccn[nH]3)c2n1 [Example 94, 4-(6-fluoropyridin-3-yl)-2-[(3R)-3-methylmorpholin-4-yl]-8-(1H-pyrazol-5-yl)-1,7-naphthyridine] | 268 nM
COc1ccc(-c2cc(N3CCOC[C@H]3C)nc3c(-c4ccn[nH]4)nccc23)cn1 [Example 95, 4-(6-methoxypyridin-3-yl)-2-[(3R)-3-methylmorpholin-4-yl]-8-(1H-pyrazol-5-yl)-1,7-naphthyridine] | 211 nM
Cc1nc(F)ccc1-c1cc(N2CCOC[C@H]2C)nc2c(-c3ccn[nH]3)nccc12 [Example 97, 4-(6-fluoro-2-methylpyridin-3-yl)-2-[(3R)-3-methylmorpholin-4-yl]-8-(1H-pyrazol-5-yl)-1,7-naphthyridine] | 252 nM
C[C@@H]1COCCN1c1cc(-c2cc(C(F)(F)F)nn2C)c2ccnc(-c3ccn[nH]3)c2n1 [Example 98, 2-[(3R)-3-methylmorpholin-4-yl]-4-[1-methyl-3-(trifluoromethyl)-1H-pyrazol-5-yl]-8-(1H-pyrazol-5-yl)-1,7-naphthyridine] | 440 nM
Cc1ccsc1-c1cc(N2CCOC[C@H]2C)nc2c(-c3ccn[nH]3)nccc12 [Example 99, 2-[(3R)-3-methylmorpholin-4-yl]-4-(3-methyl-2-thienyl)-8-(1H-pyrazol-5-yl)-1,7-naphthyridine] | 400 nM
C[C@@H]1COCCN1c1cc(-c2sccc2Cl)c2ccnc(-c3ccn[nH]3)c2n1 [Example 102, 4-(3-chloro-2-thienyl)-2-[(3R)-3-methylmorpholin-4-yl]-8-(1H-pyrazol-5-yl)-1,7-naphthyridine] | 604 nM
Cc1sccc1-c1cc(N2CCOC[C@H]2C)nc2c(-c3ccn[nH]3)nccc12 [Example 103, 2-[(3R)-3-methylmorpholin-4-yl]-4-(2-methyl-3-thienyl)-8-(1H-pyrazol-5-yl)-1,7-naphthyridine] | 374 nM
C[C@@H]1COCCN1c1cc(-c2ccnc3[nH]ccc23)c2ccnc(-c3ccn[nH]3)c2n1 [Example 104, 2-[(3R)-3-methylmorpholin-4-yl]-8-(1H-pyrazol-5-yl)-4-(1H-pyrrolo[2,3-b]pyridin-4-yl)-1,7-naphthyridine] | 499 nM
COc1nccc(-c2cc(N3CCOC[C@H]3C)nc3c(-c4ccn[nH]4)nccc23)c1Cl [Example 106, 4-(3-chloro-2-methoxypyridin-4-yl)-2-[(3R)-3-methylmorpholin-4-yl]-8-(1H-pyrazol-5-yl)-1,7-naphthyridine] | 434 nM
C[C@@H]1COCCN1c1cc(C2CCOCC2)c2ccnc(-c3ccn[nH]3)c2n1 [Example 107, 2-[(3R)-3-methylmorpholin-4-yl]-8-(1H-pyrazol-5-yl)-4-(tetrahydro-2H-pyran-4-yl)-1,7-naphthyridine] | 306 nM
CC1CCN(c2cc(N3CCOC[C@H]3C)nc3c(-c4ccn[nH]4)nccc23)CC1 [Example 109, 2-[(3R)-3-methylmorpholin-4-yl]-4-(4-methylpiperidin-1-yl)-8-(1H-pyrazol-5-yl)-1,7-naphthyridine] | 298 nM
Cc1cc(-c2cc(N3CCOC[C@H]3C)nc3c(-c4ccn[nH]4)nccc23)on1 [Example 112, 2-[(3R)-3-methylmorpholin-4-yl]-4-(3-methyl-1,2-oxazol-5-yl)-8-(1H-pyrazol-5-yl)-1,7-naphthyridine] | 99.5 nM
CCn1nc(C)cc1-c1cc(N2CCOC[C@H]2C)nc2c(-c3ccn[nH]3)nccc12 [Example 113, 4-(1-ethyl-3-methyl-1H-pyrazol-5-yl)-2-[(3R)-3-methylmorpholin-4-yl]-8-(1H-pyrazol-5-yl)-1,7-naphthyridine] | 122 nM
Cc1cnn(C)c1-c1cc(N2CCOC[C@H]2C)nc2c(-c3ccn[nH]3)nccc12 [Example 114, 4-(1,4-dimethyl-1H-pyrazol-5-yl)-2-[(3R)-3-methylmorpholin-4-yl]-8-(1H-pyrazol-5-yl)-1,7-naphthyridine] | 177 nM
CSc1ccc(-c2cc(N3CCOC[C@H]3C)nc3c(-c4ccn[nH]4)nccc23)c(C)n1 [Example 115, 4-[2-methyl-6-(methylsulfanyl)pyridin-3-yl]-2-[(3R)-3-methylmorpholin-4-yl]-8-(1H-pyrazol-5-yl)-1,7-naphthyridine] | 199 nM
CCCn1nccc1-c1cc(N2CCOC[C@H]2C)nc2c(-c3ccn[nH]3)nccc12 [Example 117, 2-[(3R)-3-methylmorpholin-4-yl]-4-(1-propyl-1H-pyrazol-5-yl)-8-(1H-pyrazol-5-yl)-1,7-naphthyridine] | 225 nM
CCn1nc(C(F)(F)F)cc1-c1cc(N2CCOC[C@H]2C)nc2c(-c3ccn[nH]3)nccc12 [Example 119, 4-[1-ethyl-3-(trifluoromethyl)-1H-pyrazol-5-yl]-2-[(3R)-3-methylmorpholin-4-yl]-8-(1H-pyrazol-5-yl)-1,7-naphthyridine] | 425 nM
COC(=O)c1ccc(-c2cc(N3CCOC[C@H]3C)nc3c(-c4ccn[nH]4)nccc23)[nH]1 [Example 120, methyl 5-{2-[(3R)-3-methylmorpholin-4-yl]-8-(1H-pyrazol-5-yl)-1,7-naphthyridin-4-yl}-1H-pyrrole-2-carboxylate] | 354 nM
C[C@@H]1COCCN1c1cc(-c2ccns2)c2ccnc(-c3ccn[nH]3)c2n1 [Example 121, 2-[(3R)-3-methylmorpholin-4-yl]-8-(1H-pyrazol-5-yl)-4-(1,2-thiazol-5-yl)-1,7-naphthyridine] | 352 nM
C[C@@H]1COCCN1c1cc(-c2ccc(F)cc2F)c2ccnc(-c3ccn[nH]3)c2n1 [Example 123, 4-(2,4-difluorophenyl)-2-[(3R)-3-methylmorpholin-4-yl]-8-(1H-pyrazol-5-yl)-1,7-naphthyridine] | 431 nM
CC(C)COP(C)(=O)c1cc(N2CCOC[C@H]2C)nc2c(-c3ccn[nH]3)nccc12 (stereo partly drawn) [Example 127, isobutyl methyl{2-[(3R)-3-methylmorpholin-4-yl]-8-(1H-pyrazol-5-yl)-1,7-naphthyridin-4-yl}phosphinate] | 578 nM
C[C@@H]1COCCN1c1cc(C(C)(C)O)c2ccnc(-c3ccn[nH]3)c2n1 [Example 128, 2-{2-[(3R)-3-methylmorpholin-4-yl]-8-(1H-pyrazol-5-yl)-1,7-naphthyridin-4-yl}propan-2-ol] | 770 nM

Now from value to compound:

IC50 | SMILES
92 nM | Cc1ccnc(F)c1-c1cc(N2CCOC[C@H]2C)nc2c(-c3ccn[nH]3)nccc12 [Example 90, 4-(2-fluoro-4-methylpyridin-3-yl)-2-[(3R)-3-methylmorpholin-4-yl]-8-(1H-pyrazol-5-yl)-1,7-naphthyridine]
117 nM | Cc1cc(-c2cc(N3CCOC[C@H]3C)nc3c(-c4ccn[nH]4)nccc23)cnc1F [Example 92, 4-(6-fluoro-5-methylpyridin-3-yl)-2-[(3R)-3-methylmorpholin-4-yl]-8-(1H-pyrazol-5-yl)-1,7-naphthyridine]
169 nM | COc1ncc(-c2cc(N3CCOC[C@H]3C)nc3c(-c4ccn[nH]4)nccc23)cc1C [Example 96, 4-(6-methoxy-5-methylpyridin-3-yl)-2-[(3R)-3-methylmorpholin-4-yl]-8-(1H-pyrazol-5-yl)-1,7-naphthyridine]
950 nM | Cc1ccc(-c2cc(N3CCOC[C@H]3C)nc3c(-c4ccn[nH]4)nccc23)s1 [Example 100, 2-[(3R)-3-methylmorpholin-4-yl]-4-(5-methyl-2-thienyl)-8-(1H-pyrazol-5-yl)-1,7-naphthyridine]
341 nM | Cc1cscc1-c1cc(N2CCOC[C@H]2C)nc2c(-c3ccn[nH]3)nccc12 [Example 101, 2-[(3R)-3-methylmorpholin-4-yl]-4-(4-methyl-3-thienyl)-8-(1H-pyrazol-5-yl)-1,7-naphthyridine]
1000 nM | Cc1noc(C)c1-c1cc(N2CCOC[C@H]2C)nc2c(-c3ccn[nH]3)nccc12 [Example 105, 4-(3,5-dimethyl-1,2-oxazol-4-yl)-2-[(3R)-3-methylmorpholin-4-yl]-8-(1H-pyrazol-5-yl)-1,7-naphthyridine]
456 nM | C[C@@H]1COCCN1c1cc(C2=CCSCC2)c2ccnc(-c3ccn[nH]3)c2n1 [Example 108, 4-(3,6-dihydro-2H-thiopyran-4-yl)-2-[(3R)-3-methylmorpholin-4-yl]-8-(1H-pyrazol-5-yl)-1,7-naphthyridine]
206 nM | C[C@@H]1COCCN1c1cc(-c2ccnn2C(C)(C)C)c2ccnc(-c3ccn[nH]3)c2n1 [Example 110, 4-(1-tert-butyl-1H-pyrazol-5-yl)-2-[(3R)-3-methylmorpholin-4-yl]-8-(1H-pyrazol-5-yl)-1,7-naphthyridine]
284 nM | Cc1nc(S(C)(=N)=O)ccc1-c1cc(N2CCOC[C@H]2C)nc2c(-c3ccn[nH]3)nccc12 (stereo partly drawn) [Example 116, 4-[2-methyl-6-(S-methylsulfonimidoyl)pyridin-3-yl]-2-[(3R)-3-methylmorpholin-4-yl]-8-(1H-pyrazol-5-yl)-1,7-naphthyridine]
171 nM | C[C@@H]1COCCN1c1cc(-c2cnc3n2CCC3)c2ccnc(-c3ccn[nH]3)c2n1 [Example 118, 4-(6,7-dihydro-5H-pyrrolo[1,2-a]imidazol-3-yl)-2-[(3R)-3-methylmorpholin-4-yl]-8-(1H-pyrazol-5-yl)-1,7-naphthyridine]
706 nM | C[C@@H]1COCCN1c1cc(-c2ccccc2N(C)C)c2ccnc(-c3ccn[nH]3)c2n1 [Example 122, N,N-dimethyl-2-{2-[(3R)-3-methylmorpholin-4-yl]-8-(1H-pyrazol-5-yl)-1,7-naphthyridin-4-yl}aniline]
156 nM | CC(C)n1nccc1-c1cc(N2CCOC[C@H]2C)nc2c(-c3ccn[nH]3)nccc12 [Example 124, 4-(1-isopropyl-1H-pyrazol-5-yl)-2-[(3R)-3-methylmorpholin-4-yl]-8-(1H-pyrazol-5-yl)-1,7-naphthyridine]
